# Columns and labels:
# [1] = test system: Staphylococcus aureus (ATCC 12600); experiment: Kirby-Bauer disc diffusion, S. aureus; assay type: cell-based; details: % of ciprofloxacin
# Experimental: (§1) An updated Kirby-Bauer disc diffusion method was used to assess the antimicrobial activity of the tested samples [32, 33, 34, 35]. Using ciprofloxacin as a reference drug, synthetic compounds 1–21 were tested in vitro for antibacterial activity against S. aureus and B. subtilis as Gram-positive strains and E. coli and P. aeruginosa as Gram-negative strains. […]. […].
# (§2) The cultures used were collected from the Cairo University’s Microanalytical Centre, Faculty of Science. An updated Kirby-Bauer disc diffusion method was applied for antimicrobial activities of the tests 1–21 compounds [32, 33, 34, 35]. See Appendix A.
# The cultures used were collected from the Cairo University’s Microanalytical Centre, Faculty of Science. An updated Kirby-Bauer disc diffusion method was applied for the antimicrobial activities of the tests for compounds 1–21 [28]. Shortly after, 10 mL of fresh medium was grown to 100 μL bacteria/food until a count of 10^8 cells/mL or 10^5 cells/mL was achieved. One hundred μL microbial suspension was spread over agar plates that suited the broth in which it was held. The selected colonies of each organism that may play a pathogenic function should be from the primary agar plates and tested by the disc diffusion method for susceptibility. Plates inoculated with filamentous fungi as Aspergillus flavus were incubated at 25 °C for 48 h; Gram positive bacteria as Staphylococcus aureus (ATCC 12600, Microanalytical center, Cairo, Egypt), Bacillus subtilis (ATCC 6051); Gram negative bacteria as Escherichia coli (ATCC 11775), Pseudomonas aeuroginosa (ATCC 10145) were incubated at 35–37 °C for 24–48 h and yeast as Candida albicans (ATCC 7102) was incubated at 30 °C for 24–48 h and, then the diameters of the inhibition zones were measured in millimeters. Standard discs of ciprofloxacin (antibacterial agent), fluconazole (antifungal agent) served as positive controls for antimicrobial activity, but filter discs impregnated with 10 µL of solvent (distilled water, chloroform, DMSO) were used as a negative control. Blank paper disks (Schleicher and Schuell, Cytiva, Spain) with a diameter of 8.0 mm were impregnated with 10 µL of tested concentration of the stock solutions. When a filter paper disc impregnated with a tested chemical is placed on agar, the chemical will diffuse from the disc into the agar. This diffusion will place the chemical in the agar only around the disc. The solubility of the chemical and its molecular size will determine the size of the area of chemical infiltration around the disc. […] For the disc diffusion, the zone diameters were measured with slipping calipers of the National Committee for Clinical Laboratory Standards, and the results are given in Table 1. […]
# B. subtilis = experiment: MIC, two-fold serial dilution, B. subtilis; assay type: cell-based; details: Bacillus subtilis; read-out: Minimum Inhibitory Concentration (MIC), B. subtilis
# Experimental: (§3) Table 2, using the reference drug ciprofloxacin, was presented with the MICs (minimal inhibitory concentrations) of these compounds against tested bacteria. […] The nature of aromatic substitution in the oxadiazole moiety tends to be correlated with higher antibacterial effects and the activity increased with (Ar) in the order of 2-pyridyl ≥ 3-pyridyl > 4-pyridyl > 2-Cl-Ph > 2-naphthyl.
# (§4) On 96-well microtiter plates and […] of fresh bacterial culture of a single McFarland unit overnight, a double serial dilution of each compound […] in sterile standard saline was prepared for every single source well. Ciprofloxacin antibiotic (5 mg/mL^−1) and normal saline were included as standard references in each assay (see Appendix A).
# (§5) In 96-well microtiter plates and […] of fresh bacterial culture of a single McFarland unit overnight, a double serial dilution of each compound […] in sterile standard saline was prepared for every single source well. Ciprofloxacin antibiotic (5 mg/mL^−1) and normal saline were included as standard reference in each assay. The plates were incubated at 37 °C overnight. As an indicator of bacterial growth, […] of p-iodonitrotetrazolium violet (INT) was added to each well and incubated at 37 °C for 30 min. […] The colorless tetrazolidium salt acts as an electron accepter and is reduced to a red colored formazan product by biological activity organisms. Where bacterial growth was inhibited, the solution in the well remained clear after incubation with INT.
# S. aureus = experiment: MIC, two-fold serial dilution, S. aureus; assay type: cell-based, Staphylococcus aureus; details: Staphylococcus aureus; read-out: Minimum Inhibitory Concentration (MIC), S. aureus
# Experimental: as §3, §4, §5
# E. coli = experiment: MIC, two-fold serial dilution, E. coli; assay type: cell-based; details: Escherichia coli; read-out: Minimum Inhibitory Concentration (MIC), E. coli
# Experimental: as §3, §4, §5
# P. aeruginosa = experiment: MIC, two-fold serial dilution, P. aeruginosa; assay type: cell-based; details: Pseudomonas aeruginosa; read-out: Minimum Inhibitory Concentration (MIC), P. aeruginosa
# Experimental: as §3, §4, §5
# E. coli DNA gyrase = biological target: T1, E. coli DNA gyrase (Escherichia coli, UniProt P0AES4+P0AES6); experiment: E. coli DNA gyrase assay; assay type: biochemical
# T1 construct: purchased Inspiralis
# T1 sequence (P0AES4 whole entry, one chain of several): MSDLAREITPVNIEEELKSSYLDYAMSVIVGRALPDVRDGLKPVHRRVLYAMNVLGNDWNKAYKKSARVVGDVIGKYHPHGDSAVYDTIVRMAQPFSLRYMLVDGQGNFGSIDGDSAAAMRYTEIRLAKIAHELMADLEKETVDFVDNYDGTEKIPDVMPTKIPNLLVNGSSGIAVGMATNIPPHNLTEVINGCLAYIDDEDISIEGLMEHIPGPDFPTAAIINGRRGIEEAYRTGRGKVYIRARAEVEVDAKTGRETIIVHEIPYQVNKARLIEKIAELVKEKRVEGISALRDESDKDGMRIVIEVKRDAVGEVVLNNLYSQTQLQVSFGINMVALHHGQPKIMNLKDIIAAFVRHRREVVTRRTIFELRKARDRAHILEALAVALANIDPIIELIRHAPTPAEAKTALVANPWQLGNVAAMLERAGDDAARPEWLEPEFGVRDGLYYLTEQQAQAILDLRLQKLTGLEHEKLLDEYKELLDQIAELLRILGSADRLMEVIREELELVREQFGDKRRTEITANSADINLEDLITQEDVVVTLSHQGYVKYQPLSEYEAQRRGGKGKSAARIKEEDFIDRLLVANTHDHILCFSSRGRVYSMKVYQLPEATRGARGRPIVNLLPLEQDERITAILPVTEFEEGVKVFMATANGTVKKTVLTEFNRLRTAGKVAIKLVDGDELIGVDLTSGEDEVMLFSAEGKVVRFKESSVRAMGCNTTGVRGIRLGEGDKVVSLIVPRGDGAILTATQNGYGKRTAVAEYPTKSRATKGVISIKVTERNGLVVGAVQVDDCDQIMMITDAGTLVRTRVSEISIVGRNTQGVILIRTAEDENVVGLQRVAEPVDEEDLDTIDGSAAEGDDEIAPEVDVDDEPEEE
# Experimental: (§6) IC50 assay determination was carried out in accordance with the procedures previously stated (see Appendix A).
# (§7) Inhibitory activities were determined in an assay from Inspiralis on streptavidin-coated 96-well microtiter plates from Thermo scientific Pierce. […] After washing off the unbound oligonucleotide, the enzyme test was performed. […] After that, the TF buffer (50 mM NaOAc with pH 5.0, 50 mM NaCl and 50 mM MgCl2) was added to terminate the enzymatic reaction. After additional incubation for 30 min at rt, during which biotin-oligonucleotide-plasmid triplex was 19 formed, the unbound plasmid was washed off using TF buffer and SybrGOLD in T10 buffer (10 mM Tris HCl with pH 8.0 and 1 mM EDTA) was added. […] Initial screening was done at 100 or 10 μM concentration of inhibitors. […] GraphPad Prism software was used to calculate the IC50 values. The result is given as the average value of three independent measurements. […] Determination of inhibitory activities on E. coli and S. aureus Topoisomerase IV IC50 values were determined in an assay from Inspiralis on streptavidin-coated 96-well microtiter plates from Thermo scientific Pierce. […] After washing off the unbound oligonucleotide, the enzyme test was performed. The reaction volume of 30 μL in buffer (40 mM HEPES KOH with pH 7.6, 100 mM potassium glutamate, 10 mM magnesium acetate, 10 mM DTT, 1 mM ATP, 0.05 mg/mL albumin) contained 1.5 U of topoisomerase IV from E. coli or S. aureus, 0.75 μg of pNO1 supercoiled plasmid, and 3 μL solution of the inhibitor in DMSO (10%) and Tween 20 (0.008%). […] After additional incubation for 30 min at rt, during which triplex (biotin-oligonucleotide-plasmid) was formed, the unbound plasmid was washed off using TF buffer and SybrGOLD in T10 buffer (10 mM Tris HCl with pH 8.0 and 1 mM EDTA) was added. […] Initial screening was done at 100 or 10 μM concentration of inhibitors. […] GraphPad Prism software was used to calculate the IC50 values. The result is given as the average value of three independent measurements.
# E. coli topoisomerase IV = biological target: T2, E. coli topoisomerase IV (Escherichia coli, UniProt P0AFI2+P20083); experiment: E. coli topoisomerase IV assay; assay type: biochemical
# T2 construct: purchased Inspiralis
# T2 sequence (P0AFI2 whole entry): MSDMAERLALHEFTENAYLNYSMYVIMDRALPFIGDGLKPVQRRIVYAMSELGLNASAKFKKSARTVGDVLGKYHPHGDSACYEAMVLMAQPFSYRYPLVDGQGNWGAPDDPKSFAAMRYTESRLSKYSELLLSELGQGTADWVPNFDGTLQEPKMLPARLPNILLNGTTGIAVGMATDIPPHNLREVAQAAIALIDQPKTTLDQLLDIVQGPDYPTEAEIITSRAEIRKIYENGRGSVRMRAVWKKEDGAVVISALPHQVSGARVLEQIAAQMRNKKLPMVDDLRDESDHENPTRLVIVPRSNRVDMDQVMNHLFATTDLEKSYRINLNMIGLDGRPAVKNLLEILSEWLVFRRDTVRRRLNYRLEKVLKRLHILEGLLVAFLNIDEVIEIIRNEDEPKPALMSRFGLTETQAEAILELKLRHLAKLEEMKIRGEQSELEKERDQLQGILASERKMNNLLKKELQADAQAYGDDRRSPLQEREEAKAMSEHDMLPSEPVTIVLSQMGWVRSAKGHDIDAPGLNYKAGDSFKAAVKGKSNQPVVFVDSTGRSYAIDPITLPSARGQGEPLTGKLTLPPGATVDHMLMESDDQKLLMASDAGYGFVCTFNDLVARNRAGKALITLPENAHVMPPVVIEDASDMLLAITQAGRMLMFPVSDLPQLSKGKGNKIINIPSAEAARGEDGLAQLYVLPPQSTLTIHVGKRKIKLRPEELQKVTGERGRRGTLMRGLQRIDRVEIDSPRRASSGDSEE
# T2 sequence (P20083 whole entry): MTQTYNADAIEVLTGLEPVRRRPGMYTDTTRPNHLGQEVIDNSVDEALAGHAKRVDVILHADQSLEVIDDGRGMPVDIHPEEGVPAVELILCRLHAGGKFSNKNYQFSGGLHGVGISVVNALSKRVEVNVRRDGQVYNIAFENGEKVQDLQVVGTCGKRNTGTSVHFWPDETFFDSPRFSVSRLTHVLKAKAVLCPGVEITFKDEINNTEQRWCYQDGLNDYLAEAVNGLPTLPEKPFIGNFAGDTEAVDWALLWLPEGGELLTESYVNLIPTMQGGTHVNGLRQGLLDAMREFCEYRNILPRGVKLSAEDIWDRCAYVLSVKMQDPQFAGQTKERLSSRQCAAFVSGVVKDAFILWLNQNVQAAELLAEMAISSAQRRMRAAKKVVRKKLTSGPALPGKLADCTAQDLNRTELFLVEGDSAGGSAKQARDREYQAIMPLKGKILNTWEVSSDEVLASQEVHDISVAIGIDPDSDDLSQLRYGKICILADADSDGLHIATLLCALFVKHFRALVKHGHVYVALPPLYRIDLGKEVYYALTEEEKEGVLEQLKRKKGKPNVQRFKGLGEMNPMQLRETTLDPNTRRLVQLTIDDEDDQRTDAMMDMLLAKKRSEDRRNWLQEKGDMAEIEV
# Experimental: as §6, §7
# [2] = Cell viability assay (MTT); assay type: cell-based; design: dose or concentration left out as unconfirmed; details: human, MCF-10A mammary gland epithelial cells, four days
# Experimental: A human mammary gland epithelial cell line (MCF-10A) was used to conduct a cell viability assay. Compounds 2–6 were incubated with MCF-10A cells for four days, and the viability of the cells was determined using the 3-(4,5-dimethylthiazol-2-yl)-2,5-diphenyltetrazolium bromide (MTT) assay. All compounds had no cytotoxic effects, and the viability of the cells was greater than 85% for most of the compounds examined […], as shown in Table 4.
# MTT Assay was performed to investigate the effect of compounds 2–6 on the viability of mammary epithelial cells (MCF-10A) (see Appendix A).
# [3] = test system: Bacillus subtilis (ATCC 6051); experiment: Kirby-Bauer disc diffusion, B. subtilis; assay type: cell-based; details: % of ciprofloxacin
# Experimental: as §1, §2
# (§8) The cultures used were collected from the Cairo University’s Microanalytical Centre, Faculty of Science. An updated Kirby-Bauer disc diffusion method was applied for the antimicrobial activities of the tests for compounds 1–21 [28]. […] Plates inoculated with filamentous fungi as Aspergillus flavus were incubated at 25 °C for 48 h; Gram positive bacteria as Staphylococcus aureus (ATCC 12600, Microanalytical center, Cairo, Egypt), Bacillus subtilis (ATCC 6051); Gram negative bacteria as Escherichia coli (ATCC 11775), Pseudomonas aeuroginosa (ATCC 10145) were incubated at 35–37 °C for 24–48 h and yeast as Candida albicans (ATCC 7102) was incubated at 30 °C for 24–48 h and, then the diameters of the inhibition zones were measured in millimeters. […]
# [4] = test system: Escherichia coli (ATCC 11775); experiment: Kirby-Bauer disc diffusion, E. coli; assay type: cell-based; details: % of ciprofloxacin
# Experimental: as §1, §2
# The cultures used were collected from the Cairo University’s Microanalytical Centre, Faculty of Science. An updated Kirby-Bauer disc diffusion method was applied for the antimicrobial activities of the tests for compounds 1–21 [28]. Shortly after, 10 mL of fresh medium was grown to 100 μL bacteria/food until a count of 10^8 cells/mL or 10^5 cells/mL was achieved. One hundred μL microbial suspension was spread over agar plates that suited the broth in which it was held. The selected colonies of each organism that may play a pathogenic function should be from the primary agar plates and tested by the disc diffusion method for susceptibility. Plates inoculated with filamentous fungi as Aspergillus flavus were incubated at 25 °C for 48 h; Gram positive bacteria as Staphylococcus aureus (ATCC 12600, Microanalytical center, Cairo, Egypt), Bacillus subtilis (ATCC 6051); Gram negative bacteria as Escherichia coli (ATCC 11775), Pseudomonas aeuroginosa (ATCC 10145) were incubated at 35–37 °C for 24–48 h and yeast as Candida albicans (ATCC 7102) was incubated at 30 °C for 24–48 h and, then the diameters of the inhibition zones were measured in millimeters. […] For the disc diffusion, the zone diameters were measured with slipping calipers of the National Committee for Clinical Laboratory Standards, and the results are given in Table 1. […]
# [5] = test system: Pseudomonas aeuroginosa (ATCC 10145); experiment: Kirby-Bauer disc diffusion, P. aeruginosa; assay type: cell-based, Pseudomonas aeruginosa; details: % of ciprofloxacin
# Experimental: as §1, §2, §8
# [6] = test system: most of the pathogens tested; design: method as in doi:10.1002/jhet.2760; details: cited from earlier work
# [7] = biological target: S. aureus topoisomerase IV; design: method as in PMID 29206345; details: value given in method; read-out: IC50 of internal standard, S. aureus topoisomerase IV; cited from earlier work
smiles,measurement,setting,value
"O=C(O)c1cn(C2CC2)c2cc(N3CCN(Cn4nc(-c5ccncc5)oc4=S)CC3)c(F)cc2c1=O [Compound 6, 1-Cyclopropyl-6-fluoro-4-oxo-7-[4-(5-pyridin-4-yl-2-thioxo-[1,3,4]oxadiazol-3-yl-methyl)-piperazin-1-yl]-1,4-dihydro-quinoline-3-carboxylic acid]","antibacterial activity relative to ciprofloxacin, S. aureus",[1],120%
same,MIC,B. subtilis,0.125 µg/mL
same,MIC,S. aureus,0.031 µg/mL
same,MIC,E. coli,0.125 µg/mL
same,MIC,P. aeruginosa,0.125 µg/mL
same,IC50,E. coli DNA gyrase,0.18 ± 0.02 µM
same,IC50,E. coli topoisomerase IV,8.92 ± 0.2 µM
same,viability at 4 days,[2],87%
"O=C(O)c1cn(C2CC2)c2cc(N3CCN(CN4C(=O)SC(=Cc5ccccc5)C4=O)CC3)c(F)cc2c1=O [Compound 16, 7-[4-(5-Benzylidene-2,4-dioxo-thiazolidin-3-ylmethyl)-piperazin-1-yl]-1-cyclo-propyl-6-fluoro-4-oxo-1,4-dihydro-quinoline-3-carboxylic acid]","antibacterial activity relative to ciprofloxacin, B. subtilis",[3],93%
same,"antibacterial activity relative to ciprofloxacin, S. aureus",[1],85%
same,"antibacterial activity relative to ciprofloxacin, E. coli",[4],93%
same,"antibacterial activity relative to ciprofloxacin, P. aeruginosa",[5],93%
same,melting point,,237 °C
O=C(O)c1cn(C2CC2)c2cc(N3CCN(Cn4nc(CN5CCSCC5)oc4=S)CC3)c(F)cc2c1=O [I],times more potent than ampicillin,[6],> 41 times
CO[C@@H]1[C@@H](OC(N)=O)[C@@H](O)[C@H](Oc2ccc3c(O)c(NC(=O)c4ccc(O)c(CC=C(C)C)c4)c(=O)oc3c2C)OC1(C)C [Novobiocin],IC50,[7],26.7 µM

# Source: article PMC8145110, “Design, Synthesis, and Antibacterial Screening of Some Novel Heteroaryl-Based Ciprofloxacin Derivatives as DNA Gyrase and Topoisomerase IV Inhibitors” (Pharmaceuticals, 2021)
